The results in this text go back to PubChem BioAssay (NCI).

Molecules are shown by their SMILES.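 These data come from cells grown in 96-well plates and exposed to compound for 48 hours at five concentrations. At the GI50, growth is halved. TGI: total growth inhibition.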 Where only a bound is given, the exact number is not on record here.

Among the test systems are A549 NSCLC; CAKI-1 renal; COLO 205 colon; M14 melanoma; RPMI-8226 leukemia; RXF 393 renal; SK-MEL-2 melanoma; SNB-19 CNS; SK-OV-3 ovarian; PC-3 prostate.
What all share (experiment): NCI-60 cell line screen, 48 h

As for `Cc1ccc(Sc2cc([N+](=O)[O-])cc(Sc3ccc(C)cc3)c2Sc2ccc(C)cc2)cc1`, the TGI in the assay with A549 NSCLC, in the assay with CAKI-1 renal, in the assay with COLO 205 colon, in the assay with M14 melanoma, in the assay on RPMI-8226 leukemia and with RXF 393 renal was > 100 µM throughout. Further, the TGI in the assay with SK-MEL-2 melanoma and with SNB-19 CNS was > 100 µM each time.

With `O=C1OC(=O)C2C1C1(c3ccccc3)OC2(c2ccccc2)c2c(Br)c(Br)c(Br)c(Br)c21` (stereo not drawn), the TGI with A549 NSCLC, in the assay on CAKI-1 renal, in the assay with COLO 205 colon, in the assay with M14 melanoma, in the assay with RPMI-8226 leukemia and in the assay on RXF 393 renal was > 100 µM in each case. Also, the TGI is > 100 µM with SK-MEL-2 melanoma, 74.9 µM in the assay with SK-OV-3 ovarian and > 100 µM in the assay on SNB-19 CNS.

`CCCCCCCCCCCCCCCc1nc(SCC(=O)O)n[nH]1`: the TGI with A549 NSCLC is > 100 µM; in the assay with CAKI-1 renal, > 100 µM; in the assay with M14 melanoma, 42.4 µM; with RPMI-8226 leukemia, > 100 µM; in the assay with RXF 393 renal, > 100 µM; in the assay on SK-MEL-2 melanoma, > 100 µM. Also, the TGI in the assay with SK-OV-3 ovarian and in the assay on SNB-19 CNS was > 100 µM throughout.

Turning to `CC(=O)NC1C(OCc2ccccc2)OC(COC(=O)CCCCCCCCCCNC(=O)CCNc2ccc([N+](=O)[O-])c3[nH]c4ccc(O)cc4c(=O)c23)C(O)C1OC(C)C(=O)N[C@H](C(=O)N[C@H](CCC(=O)O)C(N)=O)C(C)C` (stereo partly drawn), the TGI is > 100 µM with A549 NSCLC; > 100 µM with CAKI-1 renal; > 100 µM in the assay on COLO 205 colon; > 100 µM with M14 melanoma; 46.6 µM in the assay on RPMI-8226 leukemia; > 100 µM in the assay on RXF 393 renal. In addition, the TGI in the assay on SK-MEL-2 melanoma, in the assay on SK-OV-3 ovarian and in the assay with SNB-19 CNS was > 100 µM each time.

Consider `O=c1c2ccc(Br)cc2nc(-c2ccccc2)n1NC1OC(CO)C(O)C(O)C1O` (stereo not drawn), for which the TGI in the assay with A549 NSCLC, with CAKI-1 renal, with COLO 205 colon, with M14 melanoma, in the assay on RPMI-8226 leukemia and with SK-MEL-2 melanoma was > 100 µM in each case. The TGI in the assay with SK-OV-3 ovarian and in the assay with SNB-19 CNS was > 100 µM each time.

As for `Cn1c(=O)c2nc3sc4ccccc4c(=N)n3c2n(C)c1=O`, the TGI in the assay on A549 NSCLC, in the assay with CAKI-1 renal, in the assay with COLO 205 colon, with RXF 393 renal, with SK-MEL-2 melanoma and in the assay on SK-OV-3 ovarian was > 100 µM throughout. In addition, the TGI with SNB-19 CNS was > 100 µM.

As to `COc1ccc(/C=C\c2cc(OC)c(OC(C)=O)c(OC)c2)cc1`, the TGI is 78 µM with A549 NSCLC; > 100 µM with CAKI-1 renal; > 100 µM in the assay on COLO 205 colon; 92.2 µM in the assay with M14 melanoma; 85.7 µM in the assay on RPMI-8226 leukemia; 58.8 µM with SK-MEL-2 melanoma. Further, the TGI in the assay on SK-OV-3 ovarian and in the assay with SNB-19 CNS was > 100 µM each time.

Consider `COC(=O)/C=C/c1cc(OC)c2c(c1)[C@@H](C(=O)OC)[C@H](c1ccc(OC)c(OC)c1)O2`, for which the GI50 was 11.2 µM in the assay with A549 NSCLC; 0.816 µM with M14 melanoma; 2.11 µM with PC-3 prostate; 2.8 µM in the assay on SK-MEL-2 melanoma; 6.13 µM in the assay with SK-OV-3 ovarian; 8.64 µM with SNB-19 CNS. In addition, the TGI in the assay with A549 NSCLC, in the assay on M14 melanoma, in the assay on PC-3 prostate, in the assay on SK-MEL-2 melanoma, in the assay on SK-OV-3 ovarian and in the assay with SNB-19 CNS was > 100 µM in each case.

For `COc1ccc2c(c1)[n+](=O)c(C(=O)C/C(=N\NC(=O)C[N+](C)(C)C)C(=O)Nc1cc(Cl)ccc1Cl)c(C)n2O`, the TGI in the assay on A549 NSCLC, in the assay on CAKI-1 renal, in the assay on COLO 205 colon, in the assay with M14 melanoma, with RPMI-8226 leukemia and in the assay with RXF 393 renal was > 100 µM in each case. Moreover, the TGI in the assay on SK-MEL-2 melanoma and with SNB-19 CNS was > 100 µM each time.

Consider `COc1cccc(/C=N/[N-]C(N)=O)c1[O-].[Cu+2].c1ccncc1`, for which the TGI with A549 NSCLC was found to be 34.9 µM; in the assay on CAKI-1 renal, 31.1 µM; with COLO 205 colon, 32.2 µM; in the assay on M14 melanoma, 31.4 µM; with RPMI-8226 leukemia, 67.1 µM; with RXF 393 renal it was 28.6 µM. In addition, the TGI with SK-MEL-2 melanoma came out at 58.5 µM; in the assay with SK-OV-3 ovarian it was 49.7 µM; in the assay with SNB-19 CNS it was 25 µM.

Consider `O=C(c1ccccc1)C(c1ccccc1)C1(O)C(=O)Nc2ccc(Br)cc21` (stereo not drawn), for which the TGI with A549 NSCLC was > 100 µM; with CAKI-1 renal, > 100 µM; in the assay on COLO 205 colon, > 100 µM; in the assay on M14 melanoma, > 100 µM; with RPMI-8226 leukemia, 98.9 µM; in the assay on RXF 393 renal, > 100 µM. Further, the TGI in the assay with SK-MEL-2 melanoma, in the assay with SK-OV-3 ovarian and in the assay on SNB-19 CNS was > 100 µM each time.

Consider `Cn1c(=O)ccc2cc(C(=O)c3ccccc3)ccc21`, for which the TGI in the assay on A549 NSCLC, with CAKI-1 renal, with COLO 205 colon, in the assay on M14 melanoma, in the assay with RPMI-8226 leukemia and with SK-MEL-2 melanoma was > 100 µM in each case. In addition, the TGI in the assay on SK-OV-3 ovarian and with SNB-19 CNS was > 100 µM each time.

In the case of `Cc1cc(=O)[nH]c2c1C(=O)C(=O)C=C2`, the GI50 in the assay on A549 NSCLC was 81.9 µM; in the assay on CAKI-1 renal, 19.4 µM; in the assay with COLO 205 colon it was > 100 µM; in the assay on M14 melanoma, 23.8 µM; in the assay with PC-3 prostate it was 71 µM; with RPMI-8226 leukemia it was 39 µM. Moreover, the GI50 is > 100 µM in the assay with SK-MEL-2 melanoma, > 100 µM in the assay with SK-OV-3 ovarian and 42.7 µM in the assay with SNB-19 CNS. For the same compound, the TGI was > 100 µM in the assay with A549 NSCLC; 37.4 µM in the assay on CAKI-1 renal; > 100 µM in the assay with COLO 205 colon; 60.9 µM in the assay with M14 melanoma; > 100 µM in the assay on PC-3 prostate; > 100 µM with RPMI-8226 leukemia. For the same compound, the TGI in the assay on SK-MEL-2 melanoma, in the assay on SK-OV-3 ovarian and in the assay on SNB-19 CNS was > 100 µM each time.

As to `CCn1cc(C(=O)O)c(=O)c2cc(F)c(N3CCNCC3)nc21`, the TGI in the assay on A549 NSCLC, with COLO 205 colon, with M14 melanoma, in the assay on RPMI-8226 leukemia, in the assay with SK-MEL-2 melanoma and with SK-OV-3 ovarian was > 100 µM throughout. In the assay on SNB-19 CNS, the TGI was > 100 µM.
